Results published in patent EP0162568A2, “Paulomycin analogues and their preparation” (THE UPJOHN COMPANY, priority 1984, dated 1985).
Like-named read-outs stand apart in the source and are kept apart here.

Experiments:
[1] = solubility (characterization); format: physicochemical
Gram-positive organisms = experiment: antibacterial activity, general statement; format: cell-based; settings: including organisms resistant to penicillins, macrolides and lincosaminides
[2] = in water; background statement; cited from earlier work
[3] = free acid form, in phosphate buffers at physiological pH (7.0-7.5)
[4] = in chloroform, methylene chloride
[5] = in ether and saturated hydrocarbon solvents
[6] = in lower alcohols, ketones, ethyl acetate

Compound	Solubility [1, 3]	Solubility ([1]; free acid form, in water)	Solubility [1, 4]	Solubility [1, 5]	Solubility [1, 6]	Solubility ([1]; salts, in water)	activity against Gram-positive organisms (Gram-positive organisms)	Solubility [2]
CC=C(NC(=S)SCC(NC(C)=O)C(=O)O)C(=O)OC1C(COC(C)=O)OC(C2(O)CC(=O)C(O)=C(C(N)=O)C2=O)C(O)C1OC1CC(OC)C(O)(C(C)OC(=O)C(C)CC)C(C)O1 (stereo not drawn) [Antibiotic 273a2α]	soluble	insoluble	less soluble	insoluble	Soluble	soluble	active	
paulomycin								relatively insoluble
CC=C(NC(=S)SCC(NC(C)=O)C(=O)O)C(=O)OC1C(COC(C)=O)OC(C2(O)CC(=O)C(O)=C(C(N)=O)C2=O)C(O)C1OC1CC(OC)C(O)(C(C)OC(=O)C(C)C)C(C)O1 (stereo not drawn) [Antibiotic 273a2β]	soluble	insoluble	less soluble	insoluble	Soluble	soluble	active	
